Source: the supplement of paper PMC11451515

Columns and labels:
Experiment in all cases: AUC of viability dose-response curve (% viability x log10 dose units); higher = less sensitive
Conditions in all cases: 48 h
P12-Ichikawa = system: P12-Ichikawa
Outline: (§1)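 Seeding of medium-adapted leukemia cells was at 500 or 1000 cells/well in 1536-well plates, followed by 48 h at 37°C with library compounds in DMSO at 11 threefold doses from 47 μM to 0.79 nM. CellTiter-Glo One luminescence was normalised per plate to DMSO and cell-free wells and fitted as a four-parameter log-logistic function of log10 dose. Area under the curve was integrated by trapezoidal rule, with curves exceeding full viability scaled and curves failing quality control removed.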

SEM cells = system: SEM cells
Outline: as §1

NOMO1 = system: NOMO1
Outline: as §1

[1] = RPMI 5 mM glucose + 10% dialyzed FBS

| SMILES | AUC of viability dose-response curve (P12-Ichikawa; HPLM + 10% dialyzed FBS) | AUC of viability dose-response curve (P12-Ichikawa; RPMI 5 mM glucose + 10% FBS) | AUC of viability dose-response curve (P12-Ichikawa; [1]) | AUC of viability dose-response curve (SEM cells; HPLM + 10% dialyzed FBS) | AUC of viability dose-response curve (SEM cells; RPMI 5 mM glucose + 10% FBS) | AUC of viability dose-response curve (SEM cells; [1]) | AUC of viability dose-response curve (NOMO1; HPLM + 10% dialyzed FBS) | AUC of viability dose-response curve (NOMO1; RPMI 5 mM glucose + 10% FBS) | AUC of viability dose-response curve (NOMO1; [1]) |
| --- | --- | --- | --- | --- | --- | --- | --- | --- | --- |
| C[S+](=O)([O-])N(Cc1ccco1)CC(O)Cn1c2ccccc2c2ccccc21 (stereo not drawn) | 436 | 414 | 409 | 407 | 396 | 381 | 421 | 415 | 417 |
| CNC1[C@@H](O)C(O[C@@H]2C(O)C(O[C@H]3O[C@H]([C@@H](C)NC)CC[C@H]3N)[C@@H](N)C[C@H]2N)OC[C@]1(C)O (stereo partly drawn) | 462 | 444 | 436 | 459 | 421 | 472 | 446 | 448 | 415 |
| CC(C)(C)C(=O)OCOP(=O)(COCCn1cnc2c(N)ncnc21)OCOC(=O)C(C)(C)C | 316 | 287 | 309 | 291 | 238 | 235 | 306 | 259 | 278 |
| Clc1cc(Cl)cc(CNc2ncncc2-c2ccc3c(c2)OCO3)c1 | 431 | 429 | 450 | 441 | 437 | 435 | 414 | 412 | 418 |
| CC(=O)N1CCN(c2ccc(OC[C@H]3CO[C@](Cn4ccnc4)(c4ccc(Cl)cc4Cl)O3)cc2)CC1 | 449 | 456 | 452 | 391 | 340 | 336 | 437 | 456 | 470 |
| CC1(C)OC2CC3C4CC(F)C/5=C/C(=O)/C=C\C5(C)C4C(O)CC3(C)[C@@]2(O1)C(=O)CO (stereo partly drawn) | 390 | 340 | 325 | 386 | 360 | 354 | 454 | 465 | 456 |
| CN1\C(=C(\O)C2=C(C=CS2)[S+]1([O-])=O)C(=O)NC3=CC=CC=N3 | 465 | 449 | 459 | 467 | 474 | 475 | 450 | 453 | 455 |
| Cn1c(Nc2ccc(C(F)(F)F)cc2)nc2cc(Oc3ccnc(-c4nc(C(F)(F)F)c[nH]4)c3)ccc21 | 441 | 425 | 431 | 402 | 389 | 395 | 444 | 454 | 446 |
| CC(C)[C@@H](C[S+](=O)([O-])C(C)C)N1C(=O)[C@@](C)(CC(=O)O)C[C@H](c2cccc(Cl)c2)[C@H]1c1ccc(Cl)cc1 | 278 | 320 | 335 | 355 | 289 | 360 | 306 | 357 | 362 |
| CCC[C@H](N[C@@H](C)C(=O)N1[C@H](C(=O)O)C[C@@H]2CCCC[C@@H]21)C(=O)OCC | 454 | 433 | 438 | 469 | 469 | 466 | 394 | 439 | 399 |
| C[C@@H](O)[C@@H]1[C@H]2[C@@H](C)\C(=C(/N2C1=O)C(=O)OCOC(=O)C(C)(C)C)SC3CN(C3)/C4=N/CCS4 | 471 | 469 | 464 | 467 | 467 | 467 | 421 | 465 | 454 |
| CCC(=O)OCC(=O)[C@@]1(OC(=O)CC)[C@@H](C)C[C@H]2[C@@H]3CCC4=CC(=O)C=C[C@]4(C)[C@@]3(F)[C@@H](O)C[C@@]21C | 351 | 335 | 317 | 426 | 390 | 372 | 360 | 408 | 391 |
| OC(=O)\C1=C\N(C2=CC=C(F)C=C2)C3=C(C=C(F)C(=C3)N4CCNCC4)C1=O | 457 | 464 | 452 | 446 | 476 | 448 | 447 | 475 | 451 |
| C\C1=C\C(=O)C2=C(C=CC=C2)C1=O | 465 | 440 | 468 | 464 | 458 | 435 | 466 | 460 | 456 |
| O=C(NC[C@H]1CN(c2ccc(N3CCOCC3=O)cc2)C(=O)O1)c1ccc(Cl)s1 | 372 | 376 | 395 | 423 | 459 | 444 | 345 | 312 | 345 |
| COc1cc(O)c2c(c1)C1OC1C[C@H](O)[C@H](O)C(=O)/C=C\C[C@H](C)OC2=O (stereo partly drawn) | 443 | 441 | 442 | 394 | 394 | 384 | 418 | 427 | 427 |
| O=C(Nc1cccc(Nc2ncc(Br)c(NCCc3cnc[nH]3)n2)c1)N1CCCC1 | 318 | 294 | 344 | 213 | 203 | 191 | 349 | 342 | 369 |
| CCOC(=O)[C@H](CCc1ccccc1)N[C@@H](C)C(=O)N1CCC[C@H]1C(=O)O | 452 | 447 | 465 | 462 | 470 | 434 | 453 | 437 | 461 |
| O=C1Nc2ccc(Cl)cc2[C@@](C#CC2CC2)(C(F)(F)F)O1 | 430 | 395 | 378 | 413 | 389 | 375 | 381 | 364 | 437 |
| OC[C@H]1O[C@H]([C@@H](F)[C@@H]1O)N2\C=C/C(=O)NC2=O | 460 | 475 | 449 | 454 | 463 | 432 | 470 | 430 | 464 |
| CC(=O)CC(C1=CC=CC=C1)C/2=C(O)/C3=CC=CC=C3OC2=O (stereo not drawn) | 462 | 469 | 465 | 433 | 403 | 431 | 408 | 447 | 471 |

| SMILES | AUC of viability dose-response curve (P12-Ichikawa; HPLM + 10% dialyzed FBS) | AUC of viability dose-response curve (P12-Ichikawa; RPMI 5 mM glucose + 10% FBS) | AUC of viability dose-response curve (P12-Ichikawa; [1]) | AUC of viability dose-response curve (SEM cells; HPLM + 10% dialyzed FBS) | AUC of viability dose-response curve (SEM cells; RPMI 5 mM glucose + 10% FBS) | AUC of viability dose-response curve (SEM cells; [1]) | AUC of viability dose-response curve (NOMO1; HPLM + 10% dialyzed FBS) | AUC of viability dose-response curve (NOMO1; RPMI 5 mM glucose + 10% FBS) | AUC of viability dose-response curve (NOMO1; [1]) |
| --- | --- | --- | --- | --- | --- | --- | --- | --- | --- |
| NC(=O)c1ncn([C@@H]2O[C@H](CO)[C@@H](O)[C@H]2O)n1 | 447 | 424 | 423 | 471 | 453 | 471 | 354 | 403 | 380 |
| COc1cc2nc(N3CCCN(C)CC3)nc(NC3CCN(Cc4ccccc4)CC3)c2cc1OC | 407 | 401 | 385 | 389 | 416 | 419 | 378 | 406 | 384 |
| CC(C)Nc1cc(C(F)(F)F)cc2nc(NC(=O)c3cccnc3)nn12 | 334 | 364 | 350 | 340 | 323 | 329 | 406 | 394 | 386 |
| O=C(CO)N1CCC(c2n[nH]c(-c3ccc(Cl)cc3)c2-c2ccncn2)CC1 | 441 | 420 | 423 | 411 | 403 | 404 | 438 | 453 | 446 |
| COC[C@@H](NC(C)=O)C(=O)NCc1ccccc1 | 453 | 465 | 466 | 466 | 449 | 456 | 457 | 467 | 466 |
| C[C@@H]1COCCN1C\2=C\C(=O)N\3CC[C@H](N(CC4=CN=CC(=C4)Cl)C3=N2)C(F)(F)F | 417 | 409 | 415 | 391 | 404 | 397 | 430 | 418 | 400 |
| O=C1\C=C/C[C@@H]2[C@H]3CCCN4CCC[C@@H](CN12)[C@@H]34 | 473 | 429 | 469 | 465 | 441 | 476 | 456 | 442 | 448 |
| Cc1cccc(C)c1OCC(=O)N[C@@H](Cc1ccccc1)[C@@H](O)C[C@H](Cc1ccccc1)NC(=O)[C@H](C(C)C)N1CCCNC1=O | 443 | 448 | 414 | 391 | 435 | 435 | 443 | 418 | 422 |
| COc1cc2c(Nc3ccc(Cl)c(Cl)c3F)ncnc2cc1OC[C@@H]1C[C@@H]2CN(C)C[C@@H]2C1 | 388 | 388 | 401 | 383 | 358 | 379 | 355 | 437 | 418 |
| C1CCC(C(CC2CCCCN2)C2CCCCC2)CC1 (stereo not drawn) | 470 | 457 | 465 | 429 | 429 | 405 | 451 | 454 | 446 |
| CC1=CC=CC=C1CN2C(=O)C/3=C(/CCN(CC4=CC=CC=C4)C3)N\5CC\N=C25 | 418 | 417 | 418 | 410 | 376 | 391 | 388 | 393 | 384 |
| CC(=O)OCC(=O)[C@@]12\N=C(C)/O[C@@H]1C[C@H]3[C@@H]4CCC/5=C/C(=O)/C=C\[C@]5(C)[C@H]4[C@@H](O)C[C@]23C | 436 | 427 | 415 | 404 | 432 | 444 | 470 | 468 | 462 |
| CCCCCCCc1ccc(CCc2cccc(O)c2C(=O)O)cc1 | 445 | 434 | 435 | 474 | 474 | 461 | 472 | 445 | 441 |
| N[S+](=O)([O-])c1cc(Cl)c(Cl)c([S+](N)(=O)[O-])c1 | 448 | 460 | 473 | 450 | 446 | 449 | 453 | 445 | 458 |
| Cc1c(Cn2c(C)nc3c(C(=O)O)cc(N4CCOCC4)cc32)cccc1C(F)(F)F | 472 | 463 | 470 | 469 | 463 | 455 | 448 | 474 | 465 |
| OC[C@H](Cc1ccccc1)Nc1nc(Oc2ccc3c(c2)CCC3)nc2c1ncn2Cc1ccc(-c2ccccc2)cc1 | 454 | 431 | 418 | 455 | 428 | 432 | 463 | 434 | 458 |
| CCc1c(C(=O)C(N)=O)c2c(OCC(=O)O)cccc2n1Cc1ccccc1 | 471 | 460 | 452 | 462 | 464 | 461 | 442 | 465 | 463 |
| CCNC(=O)c1cc2c(-c3cc(OCCN4CCCC4)c(Cl)cc3Cl)nc(N)nc2s1 | 415 | 389 | 380 | 379 | 375 | 368 | 381 | 355 | 373 |
| O=C(/C=C/c1cccc([S+](=O)([O-])Nc2ccccc2)c1)NO | 362 | 352 | 365 | 284 | 277 | 289 | 396 | 402 | 397 |
| CC(=O)C\1=C(/C)C2=CN=C(NC3=CC=C(C=N3)N4CCNCC4)N=C2N(C5CCCC5)C1=O | 420 | 400 | 392 | 357 | 378 | 365 | 424 | 429 | 406 |
| C[C@@]12O[C@@H](C[C@]1(O)CO)n1c3ccccc3c3c4c(c5c6ccccc6n2c5c31)CNC4=O | 326 | 311 | 311 | 251 | 217 | 228 | 313 | 326 | 324 |
